PubChem BioAssay (NCI)
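These data come from cells grown in 96-well plates and exposed to compound for 48 hours at five concentrations. TGI: concentration producing complete growth inhibition.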

Experiments:
Assay in all cases: inhibition of tumour cell growth, NCI panel, 48 h
SR leukemia = system: SR leukemia
SK-OV-3 ovarian = system: SK-OV-3 ovarian
NCI-H522 lung = system: NCI-H522 lung
786-0 renal = system: 786-0 renal
UACC-257 melanoma = system: UACC-257 melanoma
MDA-N = system: MDA-N
MDA-MB-435 = system: MDA-MB-435
CCRF-CEM leukemia = system: CCRF-CEM leukemia
OVCAR-5 ovarian = system: OVCAR-5 ovarian
UO-31 renal = system: UO-31 renal
HOP-92 NSCLC = system: HOP-92 NSCLC
BT-549 breast = system: BT-549 breast

SMILES | TGI (SR leukemia) [µM] | TGI (SK-OV-3 ovarian) [µM] | TGI (NCI-H522 lung) [µM] | TGI (786-0 renal) [µM] | TGI (UACC-257 melanoma) [µM] | TGI (MDA-N) [µM] | TGI (MDA-MB-435) [µM] | TGI (CCRF-CEM leukemia) [µM] | TGI (OVCAR-5 ovarian) [µM] | TGI (UO-31 renal) [µM] | TGI (HOP-92 NSCLC) [µM] | TGI (BT-549 breast) [µM]
O=C(O)c1cccc2c1/C(=N/Nc1ccccc1)CC2 | > 100 | > 100 | > 100 | > 100 | > 100 | > 100 | > 100 | > 100 | > 100 | > 100 | > 100 | –
CC[C@@]1(C[C@H]2C[C@@]3(C(=O)OC)c4[nH]c5ccccc5c4CCN3C2=O)COC2(CCCCC2)O1 | > 100 | > 100 | > 100 | > 100 | 64.2 | > 100 | – | – | > 100 | > 100 | – | > 100
CCNC(=S)N/N=C/c1cc([N+](=O)[O-])ccc1O | 59.3 | > 100 | 59.3 | > 100 | > 100 | > 100 | > 100 | 38.6 | > 100 | > 100 | – | > 100
O=C(Cc1cccs1)N[C@@H]1C(=O)N2C(C(=O)OC(c3ccccc3)c3ccccc3)=C(CO)CS[C@H]12 | > 100 | > 100 | > 100 | > 100 | > 100 | > 100 | > 100 | > 100 | > 100 | > 100 | > 100 | –
CC1=C(C)[C@@]2(C)O[C@@]2(C)O[C@@]2(C)O[C@@]12C | > 100 | > 100 | > 100 | – | > 100 | > 100 | > 100 | – | > 100 | > 100 | > 100 | > 100
NC(=O)C(c1ccccc1)N1OC2C(=O)N(c3ccccc3)C(=O)C2C1c1c2ccccc2c(Cl)c2ccccc12 (stereo unspecified) | > 100 | > 100 | > 100 | > 100 | – | > 100 | > 100 | > 100 | > 100 | > 100 | > 100 | > 100
Cc1cn(C2CC(N(O)C(N)=O)C(CO)O2)c(=O)[nH]c1=O (stereo unspecified) | – | > 100 | > 100 | > 100 | – | > 100 | > 100 | – | > 100 | > 100 | > 100 | –
C=C(C1=CC(=O)C(C)(C)O1)[C@@H]1CC=C([C@@H]2CC[C@H]3[C@@]2(C)CC[C@H]2C(C)(C)C(=O)[C@H](O)C[C@]32C)[C@H](O)O1 | – | 27.9 | – | 0.79 | 4.52 | 3.58 | 8.04 | – | 28 | 2.88 | 4.11 | 21.6
Cc1cc(=O)[nH]c(NN2C(Cl)C(=O)C2c2ccccc2O)n1 (stereo unspecified) | > 100 | > 100 | – | > 100 | > 100 | > 100 | > 100 | > 100 | > 100 | > 78.1 | 32.4 | –
FC(F)(F)c1cc(Cl)cnc1N/N=C(/c1ccccc1)c1ccccn1 | – | 9.9 | 8.31 | 16.4 | 16.5 | > 100 | > 100 | 4.85 | 33.4 | 11.9 | 16.3 | 36.4
COc1ccc(/C=C2\CCC(C)C3=C2NC(=S)NC3c2ccc(OC)c(OC)c2)cc1OC (stereo unspecified) | 39.3 | > 31.6 | > 100 | > 31.6 | > 31.6 | 12.1 | > 31.6 | – | > 31.6 | > 31.6 | > 100 | 26.2
Cc1cc(O)c2c(=O)c3ccccc3[nH]c2c1 | 52.6 | > 100 | 16 | > 100 | 54.2 | > 100 | > 100 | > 100 | > 100 | – | > 100 | 85.3
O=C(O)CN(CC(=O)O)C1CCCCC1N(CC(=O)O)CC(=O)NCCN=C=S (stereo unspecified) | – | > 100 | > 100 | – | > 100 | > 100 | > 100 | > 100 | > 100 | > 100 | > 100 | > 100
Oc1cc2c3c(c1)c1cc4c(cc1c[n+]3CC2)OCO4 | – | > 100 | 4.38 | > 24.4 | > 57.4 | > 100 | > 55 | > 45.8 | > 100 | > 100 | > 75.6 | 8.1
Cc1cccc(/C=N/NC(=S)Nc2ccccc2)n1 | > 100 | > 68.7 | – | 9.14 | 8.1 | > 100 | > 100 | > 23.3 | > 100 | > 31.2 | > 92.9 | 75
O=C1C(=Cc2ccc(O)cc2)N=C(c2ccccc2)N1n1c(-c2ccccc2)nc2ccccc2c1=O | – | > 100 | > 100 | > 100 | > 100 | > 100 | > 100 | > 100 | – | > 100 | – | > 100
O=[N+]([O-])/C(C(Cl)=C(Cl)Cl)=C(\SCc1ccccc1)N1CCCCC1 | > 100 | > 100 | 39 | 36.3 | 77.2 | 50.3 | 35.5 | 30.5 | 43.9 | 56.5 | 0.529 | –
COc1ccc2c(=O)c(O)c(-c3ccc(OC)c(OC)c3)oc2c1 | > 100 | > 100 | 46 | – | > 100 | > 100 | > 100 | > 100 | > 100 | > 100 | 9.17 | –
C(/c1ccco1)=c1/nc(-c2ccccc2)n2c1nc1ccccc12 | 43 | > 100 | – | > 100 | > 100 | 54.4 | > 100 | 46.8 | > 100 | > 100 | > 100 | 94.4
CC(C)/C(Cl)=N\OC(=O)Nc1ccc(S(N)(=O)=O)cc1 | 5.17 | 31.5 | 2.55 | 31 | 32.4 | 32.9 | – | 6.49 | 33.8 | 30.2 | 10.1 | 21.3

SMILES | TGI (SR leukemia) [µM] | TGI (SK-OV-3 ovarian) [µM] | TGI (NCI-H522 lung) [µM] | TGI (786-0 renal) [µM] | TGI (UACC-257 melanoma) [µM] | TGI (MDA-N) [µM] | TGI (MDA-MB-435) [µM] | TGI (CCRF-CEM leukemia) [µM] | TGI (OVCAR-5 ovarian) [µM] | TGI (UO-31 renal) [µM] | TGI (HOP-92 NSCLC) [µM] | TGI (BT-549 breast) [µM]
CCOc1cc2c(cc1O)/C(=N\OC)C[C@@H]1[C@@H]2CC[C@]2(C)[C@@H](O)CC[C@@H]12 | 0.0585 | > 100 | 0.518 | – | > 48.1 | 0.031 | – | > 100 | > 100 | > 58.5 | > 96.6 | 40.9
CC[C@@]1(O)C(=O)OCc2c1cc1n(c2=O)Cc2c-1nc1ccccc1c2/C=N\NC(=O)CN | 0.464 | – | 35.5 | 5.7 | > 60.8 | > 100 | 41.5 | – | > 100 | 5.38 | 21.8 | > 95.4
COc1cc(/C=C2\S/C(=N/Nc3nc(-c4ccc(Br)cc4)cs3)NC2=O)cc(OC)c1OC | – | 34.7 | 30.2 | 26.5 | 44.9 | 75.1 | 46.3 | 10.3 | 83.1 | 16.7 | 18.3 | 33.8
COC(=O)c1cc2c(n1S(=O)(=O)c1ccc(C)cc1)C(=O)C(=O)c1[nH]cc(C(=O)OCc3ccccc3)c1-2 | 0.802 | 2.13 | 0.48 | 1.07 | 0.112 | – | 0.0301 | 1.05 | 1.02 | 0.685 | 0.725 | 0.334
O=c1[nH][nH]c(=O)n1Cc1ccccc1Cn1c(=O)[nH][nH]c1=O | – | > 100 | > 100 | > 100 | > 100 | > 100 | > 100 | > 100 | > 100 | > 100 | > 100 | > 100
O=C1OCC(O)=C1C(c1ccc(Cl)cc1)c1cc2c(cc1O)OCO2 (stereo unspecified) | > 100 | > 100 | – | > 100 | – | > 100 | > 100 | > 100 | > 100 | > 100 | > 100 | > 100
CC(C)c1ccc(/C=C2/C=C(c3ccc4ccccc4c3)OC2=O)cc1 | > 52.4 | > 100 | 23.5 | > 100 | 59.2 | – | > 100 | 20 | > 100 | > 100 | > 100 | > 100
O=C1CCC(=O)N1n1c(Cc2ccccc2)n[nH]c1=O | > 100 | > 100 | > 100 | > 100 | > 100 | > 100 | > 100 | > 100 | > 100 | > 100 | – | > 100
CCOC(=O)C(NC(C)=O)(Nc1ccc(F)cc1)C(F)(F)F (stereo unspecified) | > 100 | > 100 | > 100 | – | > 100 | > 100 | > 100 | > 100 | > 100 | > 100 | > 100 | > 100
Cc1ccccc1-n1c(=O)c2ncn(CCCl)c2n(-c2ccccc2C)c1=S | > 100 | > 100 | > 100 | > 100 | > 100 | – | > 100 | > 100 | > 100 | > 100 | > 100 | > 100
CC(=O)O[C@H]1C(=O)[C@]2(C)[C@@H](OC(=O)OCCC(O)CO)C[C@H]3OC[C@@]3(OC(C)=O)[C@H]2[C@H](OC(=O)c2ccccc2)[C@]2(O)C[C@H](OC(=O)[C@H](O)[C@@H](NC(=O)c3ccccc3)c3ccccc3)C(C)=C1C2(C)C (stereo partly specified) | – | – | < 0.01 | 6.05 | 21.4 | < 0.01 | < 0.01 | 0.0462 | > 36.6 | > 100 | 25.2 | 15.9
COc1ccc(N2C(=O)C3c4[nH]c5ccccc5c4C4CCC(C(C)(C)C)CC4C3C2=O)c(C)c1 (stereo unspecified) | > 100 | > 100 | > 100 | > 100 | > 100 | > 100 | > 100 | > 100 | – | > 100 | – | > 100
Cc1cc(N(CCC#N)CCC#N)ccc1/C(N=Nc1ccc(Cl)cc1)=N\NC(=O)c1ccccc1 | > 100 | > 100 | 48.1 | > 100 | > 100 | 74.2 | 76.8 | > 100 | > 100 | > 100 | – | > 100
COc1ccc(CNc2nc(NCc3ccc(OC)c(OC)c3)nc(NC3CCCCC3)n2)cc1 | > 100 | > 100 | 5.74 | > 100 | > 100 | – | > 100 | > 100 | > 100 | > 100 | > 100 | > 100
CC1(C)N=C(/C(Cl)=[N+](/[O-])C(=O)c2ccc(F)cc2)C(C)(C)N1O | 27.8 | 47 | – | 27.7 | 32.3 | 29.9 | 49.3 | 12.8 | 36.1 | 37.9 | 40 | –
N#CC1=C(N)N(c2ccccc2)C(c2ccco2)C1(C#N)C#N (stereo unspecified) | 51.1 | > 100 | 35.2 | 35.1 | 37.2 | > 100 | 71.8 | 43.9 | 48.4 | 33.6 | – | 37.4
Cc1ccc(SCC(CSCCO)OCn2cnc3c2NC(N)=NC32OCCO2)cc1 (stereo unspecified) | > 100 | > 100 | > 100 | > 100 | > 100 | > 100 | > 100 | > 100 | > 100 | > 100 | > 100 | –
Cc1ccsc1/C=N/Nc1ncccn1 | – | > 100 | – | > 100 | > 100 | > 100 | > 100 | > 100 | > 100 | > 100 | > 100 | > 100
Cc1cn(C2CC(n3cc(Cn4cc(I)c(=O)[nH]c4=O)nn3)C(CO)O2)c(=O)[nH]c1=O (stereo unspecified) | – | > 100 | – | – | > 100 | > 100 | > 100 | > 100 | > 100 | – | > 100 | > 100
